target: QPCTL (Homo sapiens (Human), UniProt Q9NXS2); assay: Assay A: biochemical QPCTL activity assay (MALDI-TOF MS); settings: compounds of the invention, Table 2; read-out: Inhibition of QPCTL: IC50
Experimental: (§1) QPCT or QPCTL dependent conversion of N-terminal glutamine to pyroglutamate of CD47 was monitored via MALDI-TOF MS. Test compounds were dissolved in 100% DMSO and serially diluted into clear 1,536-well microtiter plates. Enzymatic reactions were set up in assay buffer containing 20 mM Tris pH 7.5, 0.1 mM TCEP, 0.01% BSA, and 0.001% Tween20. […] The plates were incubated for 10 min in a humidified incubator at 24° C. Subsequently, 2.5 μL of CD47 peptide substrate surrogate (^19[…]^33) was added to each well (final concentration: 10 μM for QPCTL/20 μM for QPCT). The plates were mixed for 30 sec at 1,000 rpm and subsequently incubated for 40 min in a humidified incubator at 24° C. […] The plates were sealed with an adhesive foil, mixed for 30 s at 1,000 rpm and stored at room temperature until preparation of the MALDI target plates. […] QPCT or QPCTL activity was monitored by calculating the ratio between product and internal standard signals followed by normalization to high (100% activity) and low (0% activity) controls. Determination of compound potencies was obtained by fitting the dose-response data to a four-parameter logistical equation.

QPCTL, sequence (Q9NXS2 whole entry): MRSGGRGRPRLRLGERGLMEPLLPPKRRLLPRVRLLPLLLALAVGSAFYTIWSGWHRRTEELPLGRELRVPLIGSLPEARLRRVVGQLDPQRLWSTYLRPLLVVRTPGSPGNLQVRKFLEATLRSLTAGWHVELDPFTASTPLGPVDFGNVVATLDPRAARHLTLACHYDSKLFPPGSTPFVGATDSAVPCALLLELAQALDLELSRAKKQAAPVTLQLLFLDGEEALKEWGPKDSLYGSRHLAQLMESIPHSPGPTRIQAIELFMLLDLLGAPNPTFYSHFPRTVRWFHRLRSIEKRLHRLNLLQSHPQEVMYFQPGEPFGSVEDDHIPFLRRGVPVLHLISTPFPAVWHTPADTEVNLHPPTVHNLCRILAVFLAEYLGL

SMILES	IC50 [nM]
COc1cc(-c2cccc(C#N)c2N2CCC(F)(c3nncn3C)CC2)cnc1F [compound 53]	1
Cn1cnnc1C1(F)CCN(c2c(C#N)cccc2-c2ccc(F)nc2)CC1 [compound 56]	1
Cn1cnnc1C1CCN(c2c(C#N)cccc2-c2cnn3ncccc23)CC1 [compound 57]	5
Cn1cnnc1C1(F)CCN(c2c(C#N)cccc2-c2cnc(=O)n(Cc3ccccc3)c2)CC1 [compound 59]	2
Cn1cnnc1C1(F)CCN(c2c(C#N)cccc2-c2cnc3nn(C(C)(C)C(F)(F)F)cc3c2)CC1 [compound 61]	2
Cn1cnnc1C1(F)CCN(c2c(C#N)cccc2-c2cnc3nn(C(C)(C)C)cc3c2)CC1 [compound 62]	1
Cn1cnnc1C1(F)CCN(c2c(C#N)cccc2-c2cnc3nnn(Cc4ccccc4)c3c2)CC1 [compound 63]	1
Cn1cnnc1C1(F)CCN(c2c(C#N)cccc2-c2cnc3nn(Cc4ccccc4)nc3c2)CC1 [compound 64]	2
Cn1cnnc1C1(C)CCN(c2c(C#N)cccc2-c2ccc(F)nc2)CC1 [compound 66]	3
Cn1cnnc1C1CCN(c2c(C#N)cccc2-c2cccnc2)CC1 [compound 67]	6
Cn1cnnc1C1(F)CCN(c2c(C#N)cccc2-c2cnc3ncccc3c2)CC1 [compound 68]	7

target: QPCT (Homo sapiens (Human), UniProt Q16769); assay: Assay A: biochemical QPCT activity assay (MALDI-TOF MS); settings: compounds of the invention, Table 2; read-out: Inhibition of QPCT: IC50
Sequence (Q16769 29-361): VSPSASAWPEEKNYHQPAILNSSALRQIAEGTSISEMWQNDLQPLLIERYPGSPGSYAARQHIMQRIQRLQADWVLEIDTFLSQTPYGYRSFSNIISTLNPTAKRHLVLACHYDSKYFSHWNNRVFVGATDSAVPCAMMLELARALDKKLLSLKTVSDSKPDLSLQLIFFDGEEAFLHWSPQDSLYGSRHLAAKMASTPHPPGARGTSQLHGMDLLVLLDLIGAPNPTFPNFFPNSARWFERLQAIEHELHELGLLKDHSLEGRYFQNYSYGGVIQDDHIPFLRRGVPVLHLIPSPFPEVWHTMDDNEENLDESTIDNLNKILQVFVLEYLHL
Experimental: as §1

SMILES	IC50 [nM]
COc1cc(-c2cccc(C#N)c2N2CCC(F)(c3nncn3C)CC2)cnc1F [compound 53]	3
Cn1cnnc1C1(F)CCN(c2c(C#N)cccc2-c2ccc(F)nc2)CC1 [compound 56]	3
Cn1cnnc1C1CCN(c2c(C#N)cccc2-c2cnn3ncccc23)CC1 [compound 57]	11
Cn1cnnc1C1(F)CCN(c2c(C#N)cccc2-c2cnc(=O)n(Cc3ccccc3)c2)CC1 [compound 59]	8
Cn1cnnc1C1(F)CCN(c2c(C#N)cccc2-c2cnc3nn(C(C)(C)C(F)(F)F)cc3c2)CC1 [compound 61]	1
Cn1cnnc1C1(F)CCN(c2c(C#N)cccc2-c2cnc3nn(C(C)(C)C)cc3c2)CC1 [compound 62]	1
Cn1cnnc1C1(F)CCN(c2c(C#N)cccc2-c2cnc3nnn(Cc4ccccc4)c3c2)CC1 [compound 63]	3
Cn1cnnc1C1(F)CCN(c2c(C#N)cccc2-c2cnc3nn(Cc4ccccc4)nc3c2)CC1 [compound 64]	5
Cn1cnnc1C1(C)CCN(c2c(C#N)cccc2-c2ccc(F)nc2)CC1 [compound 66]	2
Cn1cnnc1C1CCN(c2c(C#N)cccc2-c2cccnc2)CC1 [compound 67]	24
Cn1cnnc1C1(F)CCN(c2c(C#N)cccc2-c2cnc3ncccc3c2)CC1 [compound 68]	13

tested on: SIRPα signalling induced by Raji cells; assay: Assay B: SIRPα signalling assay using Raji cells; assay type: cell-based, human; settings: Homo sapiens, compounds of the invention, Table 4, read-out: Inhibition of SIRα signalling induced by Raji cells: IC50
Experimental: Bioassay reagent 1 of the PathHunter Bioassay detection kit (DiscoverX 93-0001) was added to each well of the plate using a multichannel pipette followed by a 15 min incubation at room temperature. Afterwards bioassay reagent 2 was added followed by 60 min incubation at room temperature (incubation in the dark).
The analysis of the data was performed using the luminescence signal generated by beta-galactosidase in the PathHunter reporter cell line. The luminescence measurement was done using a Pherastar Multi-Mode Reader.

SMILES	IC50 [nM]
COc1cc(-c2cccc(C#N)c2N2CCC(F)(c3nncn3C)CC2)cnc1F [compound 53]	81
Cn1cnnc1C1(F)CCN(c2c(C#N)cccc2-c2ccc(F)nc2)CC1 [compound 56]	29
Cn1cnnc1C1CCN(c2c(C#N)cccc2-c2cnn3ncccc23)CC1 [compound 57]	442
Cn1cnnc1C1(F)CCN(c2c(C#N)cccc2-c2cnc(=O)n(Cc3ccccc3)c2)CC1 [compound 59]	746
Cn1cnnc1C1(F)CCN(c2c(C#N)cccc2-c2cnc3nn(C(C)(C)C(F)(F)F)cc3c2)CC1 [compound 61]	23
Cn1cnnc1C1(F)CCN(c2c(C#N)cccc2-c2cnc3nn(C(C)(C)C)cc3c2)CC1 [compound 62]	21
Cn1cnnc1C1(F)CCN(c2c(C#N)cccc2-c2cnc3nnn(Cc4ccccc4)c3c2)CC1 [compound 63]	13
Cn1cnnc1C1(F)CCN(c2c(C#N)cccc2-c2cnc3nn(Cc4ccccc4)nc3c2)CC1 [compound 64]	61
Cn1cnnc1C1(C)CCN(c2c(C#N)cccc2-c2ccc(F)nc2)CC1 [compound 66]	100
Cn1cnnc1C1CCN(c2c(C#N)cccc2-c2cccnc2)CC1 [compound 67]	229
Cn1cnnc1C1(F)CCN(c2c(C#N)cccc2-c2cnc3ncccc3c2)CC1 [compound 68]	366

tested on: SIRPα signalling induced by A549 cells; assay: Assay B: SIRPα signalling assay using A549 cells; assay type: cell-based, human; settings: Homo sapiens, compounds of the invention, Table 4, read-out: Inhibition of SIRα signalling induced by A549 cells: IC50
Experimental: Two cell types are independently used: the Raji cell line (lymphoblastlike human cell line derived from B lymphocytes from a Burkitt's lymphoma patient in 1963) and A549 cells (adenocarcinomic human alveolar basal epithelial cells).
Test compounds were dissolved in 100% DMSO and serially diluted into a white 384-well microtiter cell culture plate (PerkinElmer #60076780 in case of Raji assay; PDL-coated plates Greiner #781945 in case of A549 assay). 5000 Raji cells (ATCC #CC86) or 5000 A549 cells (ATCC #CCL-185) in Assay Complete Cell Plating reagent 30 (DiscoverX 93-0563R30B) were added per well. The assay plate was incubated for 48 h at 37° C., 95% humidity and 5% CO2. 15000 reporter cells (Jurkat PathHunter SIRPα V1, DiscoverX #93-1135C19) were added to each well, and the plate was incubated for 5 h at 37° C., 95% humidity and 5% CO2. Bioassay reagent 1 of the PathHunter Bioassay detection kit (DiscoverX 93-0001) was added to each well of the plate using a multichannel pipette followed by a 15 min incubation at room temperature. Afterwards bioassay reagent 2 was added followed by 60 min incubation at room temperature (incubation in the dark).
The analysis of the data was performed using the luminescence signal generated by beta-galactosidase in the PathHunter reporter cell line. The luminescence measurement was done using a Pherastar Multi-Mode Reader. Dose-response curves & IC50 data were calculated with 4-parameter sigmoidal dose response formula.

SMILES	IC50 [nM]
COc1cc(-c2cccc(C#N)c2N2CCC(F)(c3nncn3C)CC2)cnc1F [compound 53]	22
Cn1cnnc1C1(F)CCN(c2c(C#N)cccc2-c2ccc(F)nc2)CC1 [compound 56]	7
Cn1cnnc1C1CCN(c2c(C#N)cccc2-c2cnn3ncccc23)CC1 [compound 57]	244
Cn1cnnc1C1(F)CCN(c2c(C#N)cccc2-c2cnc(=O)n(Cc3ccccc3)c2)CC1 [compound 59]	619
Cn1cnnc1C1(F)CCN(c2c(C#N)cccc2-c2cnc3nn(C(C)(C)C(F)(F)F)cc3c2)CC1 [compound 61]	22
Cn1cnnc1C1(F)CCN(c2c(C#N)cccc2-c2cnc3nn(C(C)(C)C)cc3c2)CC1 [compound 62]	11
Cn1cnnc1C1(F)CCN(c2c(C#N)cccc2-c2cnc3nnn(Cc4ccccc4)c3c2)CC1 [compound 63]	9
Cn1cnnc1C1(F)CCN(c2c(C#N)cccc2-c2cnc3nn(Cc4ccccc4)nc3c2)CC1 [compound 64]	19
Cn1cnnc1C1(C)CCN(c2c(C#N)cccc2-c2ccc(F)nc2)CC1 [compound 66]	14
Cn1cnnc1C1CCN(c2c(C#N)cccc2-c2cccnc2)CC1 [compound 67]	58
Cn1cnnc1C1(F)CCN(c2c(C#N)cccc2-c2cnc3ncccc3c2)CC1 [compound 68]	274

tested on: not listed separately; assay: Assay C: permeability in CACO-2 cells; assay type: in vitro ADME; settings: human, pH 7.2; Caco-2, apical to basolateral; compounds of the invention, Table 7
Experimental: Compounds are dissolved in appropriate solvent (like DMSO, 1-20 mM stock solutions). […] The transport solution (TL) is applied to the apical or basolateral donor side for measuring A-B or B-A permeability (3 filter replicates), respectively. Samples are collected at the start and end of experiment from the donor and at various time intervals for up to 2 hours also from the receiver side for concentration measurement by HPLC-MS/MS or scintillation counting. Sampled receiver volumes are replaced with fresh receiver solution.

SMILES	Papp A→B [×10⁻⁶ cm/s]
COc1cc(-c2cccc(C#N)c2N2CCC(F)(c3nncn3C)CC2)cnc1F [compound 53]	35
Cn1cnnc1C1(F)CCN(c2c(C#N)cccc2-c2ccc(F)nc2)CC1 [compound 56]	50
Cn1cnnc1C1CCN(c2c(C#N)cccc2-c2cnn3ncccc23)CC1 [compound 57]	3.9
Cn1cnnc1C1(F)CCN(c2c(C#N)cccc2-c2cnc(=O)n(Cc3ccccc3)c2)CC1 [compound 59]	0.4
Cn1cnnc1C1(F)CCN(c2c(C#N)cccc2-c2cnc3nn(C(C)(C)C(F)(F)F)cc3c2)CC1 [compound 61]	8
Cn1cnnc1C1(F)CCN(c2c(C#N)cccc2-c2cnc3nn(C(C)(C)C)cc3c2)CC1 [compound 62]	4.9
Cn1cnnc1C1(F)CCN(c2c(C#N)cccc2-c2cnc3nnn(Cc4ccccc4)c3c2)CC1 [compound 63]	3.3
Cn1cnnc1C1(F)CCN(c2c(C#N)cccc2-c2cnc3nn(Cc4ccccc4)nc3c2)CC1 [compound 64]	29
Cn1cnnc1C1(C)CCN(c2c(C#N)cccc2-c2ccc(F)nc2)CC1 [compound 66]	30
Cn1cnnc1C1CCN(c2c(C#N)cccc2-c2cccnc2)CC1 [compound 67]	5.3
Cn1cnnc1C1(F)CCN(c2c(C#N)cccc2-c2cnc3ncccc3c2)CC1 [compound 68]	0.6

same assay, conditions: human, pH 7.2; Caco-2; compounds of the invention, Table 7

SMILES	efflux ratio
COc1cc(-c2cccc(C#N)c2N2CCC(F)(c3nncn3C)CC2)cnc1F [compound 53]	1.3
Cn1cnnc1C1(F)CCN(c2c(C#N)cccc2-c2ccc(F)nc2)CC1 [compound 56]	0.7
Cn1cnnc1C1CCN(c2c(C#N)cccc2-c2cnn3ncccc23)CC1 [compound 57]	11
Cn1cnnc1C1(F)CCN(c2c(C#N)cccc2-c2cnc(=O)n(Cc3ccccc3)c2)CC1 [compound 59]	34.1
Cn1cnnc1C1(F)CCN(c2c(C#N)cccc2-c2cnc3nn(C(C)(C)C(F)(F)F)cc3c2)CC1 [compound 61]	8.9
Cn1cnnc1C1(F)CCN(c2c(C#N)cccc2-c2cnc3nn(C(C)(C)C)cc3c2)CC1 [compound 62]	19
Cn1cnnc1C1(F)CCN(c2c(C#N)cccc2-c2cnc3nnn(Cc4ccccc4)c3c2)CC1 [compound 63]	14.5
Cn1cnnc1C1(F)CCN(c2c(C#N)cccc2-c2cnc3nn(Cc4ccccc4)nc3c2)CC1 [compound 64]	1.2
Cn1cnnc1C1(C)CCN(c2c(C#N)cccc2-c2ccc(F)nc2)CC1 [compound 66]	1.4
Cn1cnnc1C1CCN(c2c(C#N)cccc2-c2cccnc2)CC1 [compound 67]	7.4
Cn1cnnc1C1(F)CCN(c2c(C#N)cccc2-c2cnc3ncccc3c2)CC1 [compound 68]	47.5
